In patent US20260199484A1, “PROTAC DEGRADERS OF MLLT1 AND/OR MLLT3” (DARK BLUE THERAPEUTICS LTD, priority 2024, published 2026):

Assays:
MLLT3 = molecular target: T1, MLLT3 (Homo sapiens, UniProt P42568); assay: MLLT3 HTRF IC50 determination assay (H3K9cro peptide displacement); type: binding; details: category, Table 4
T1 sequence (P42568 1-568): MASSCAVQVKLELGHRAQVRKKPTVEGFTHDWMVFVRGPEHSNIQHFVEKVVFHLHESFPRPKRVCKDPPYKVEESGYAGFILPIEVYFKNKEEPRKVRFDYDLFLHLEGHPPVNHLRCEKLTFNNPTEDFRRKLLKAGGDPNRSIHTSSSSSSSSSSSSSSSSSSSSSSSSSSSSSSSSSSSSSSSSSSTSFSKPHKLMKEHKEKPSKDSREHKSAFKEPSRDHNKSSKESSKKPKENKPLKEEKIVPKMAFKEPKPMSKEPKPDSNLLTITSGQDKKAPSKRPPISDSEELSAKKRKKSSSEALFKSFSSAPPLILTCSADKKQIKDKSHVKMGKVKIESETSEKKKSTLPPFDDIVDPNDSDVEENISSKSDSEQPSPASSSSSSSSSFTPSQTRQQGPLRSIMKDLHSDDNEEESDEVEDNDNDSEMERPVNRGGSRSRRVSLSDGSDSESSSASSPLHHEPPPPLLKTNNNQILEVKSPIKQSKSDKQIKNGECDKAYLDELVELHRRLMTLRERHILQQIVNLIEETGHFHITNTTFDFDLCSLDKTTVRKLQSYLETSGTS
From the text: (§1) This procedure is intended to measure the interaction between YEATS proteins and histone peptides modified by an appropriate epigenetic mark and can be used to assay compounds which bind to the YEATS proteins and inhibit this interaction. The assay uses 6His tagged MLLT1 or MLLT3 with an anti-6His antibody conjugated with Eu^3+ chelate (donor) and a biotinylated peptide with Streptavidin conjugated XL-665 (acceptor). When the donor and acceptor labels are in close proximity, by binding of the peptide by MLLT1 or MLLT3, the excitation of the donor (337 nm) triggers a Fluorescence Resonance Energy Transfer (FRET) to the acceptor which then fluoresces at specific wavelength (665 nm).
(§2) This step optimises the protein/peptide ratio that will be used in HTRF screening assay in order to allow the best signal-to-noise ratio. Each new purified protein should be titrate this way as the signal-to-noise ratio may differ from different protein batches. Displacement assay for MLLT1 and MLLT3 was performed by using H3K9 cro peptide (ARTKQTAR(Kcrot)STGGKAPRKQLYK(biotin)).
(§3) A serial dilution of 4× solution of biotinylated peptide was prepared in assay buffer (25 mM HEPES, 20 mM NaCl, 0.05% BSA, 0.05% Tween-20, pH 7.0) covering concentrations from 3.2 μM to 0.2 nM. and 5 μL of each dilution were transferred horizontally to fill 15 columns of a white ProxiPlate-384 Plus shallow well Microplate (Perkin Elmer, USA). A sixteenth column of buffer was also included for a background reference. In parallel, a serial dilution of the 6His-tag protein of interest was prepared in the same way and 5 μL of each dilution were vertically added to the wells containing the peptide dilutions. Buffer has been transferred to the last line of the plate in order to make a no-protein reference. The microplate has been covered and incubated 1 hour at room temperature. A 2× detection mix was prepared in assay buffer by diluting streptavidin conjugated with XL-665 (610SAXLB, Cisbio Bioassays, France) to 1/2000 and anti-6His(Eu) chelate (LANCE Eu-W1024 Anti-6×His, ADO111, Perkinelmer LAS (UK)LTD) to 1/20000, 10 μL were added to each well and the plate has been incubated for 1 to 24 hours at room temperature in the dark. The plate was read in the Pherastar using the HTRF module with dual emission protocol (A=ex. 320 nm em. 665 nm, B=ex. 320 nm em. 620 nm).
(§4) The HTRF ratio was calculated as channel A/B*10000 and the specific signal as follow: specific signal=HTRF Ratio Positive signal—HTRF Ratio Negative signal (without protein). The concentrations of protein and peptide that allow the maximum specific signal without saturation were selected to perform HRTF screening assay described below.
(§5) The compounds were dissolved in DMSO at a stock concentration of 10 mM and dispensed into microplate using the Echo acoustic liquid handler (Labcyte, Beckman Coulter, USA). The assay covers a window of compound concentrations from 20 μM to 20 nM spread in 11 data points in duplicate. Solvent and compound controls were added to each plate in order to calculate the background signal.
(§6) Ten microliters of 2× mix of 6His-protein and biotinylated peptide, the concentrations were determined above, were added to the dispensed compounds and incubated for one hour at room temperature in the dark. Ten microliters of the 2× detection mix was added to each well and the plate was incubated for another hour at room temperature in the dark and the plate was read in order to calculate the HTRF specific signal. The % inhibition values as follows:
(§7) The IC50 values were determined by plotting % inhibition vs compound concentration and fitting the data to a non-linear sigmoidal dose response equation (4 parameter fit): […]

MLLT1 [1] = molecular target: T2, MLLT1 (Homo sapiens, UniProt Q03111); assay: MLLT1 HTRF IC50 determination assay (H3K9cro peptide displacement); type: binding; details: category, Table 4
T2 sequence (Q03111 1-559): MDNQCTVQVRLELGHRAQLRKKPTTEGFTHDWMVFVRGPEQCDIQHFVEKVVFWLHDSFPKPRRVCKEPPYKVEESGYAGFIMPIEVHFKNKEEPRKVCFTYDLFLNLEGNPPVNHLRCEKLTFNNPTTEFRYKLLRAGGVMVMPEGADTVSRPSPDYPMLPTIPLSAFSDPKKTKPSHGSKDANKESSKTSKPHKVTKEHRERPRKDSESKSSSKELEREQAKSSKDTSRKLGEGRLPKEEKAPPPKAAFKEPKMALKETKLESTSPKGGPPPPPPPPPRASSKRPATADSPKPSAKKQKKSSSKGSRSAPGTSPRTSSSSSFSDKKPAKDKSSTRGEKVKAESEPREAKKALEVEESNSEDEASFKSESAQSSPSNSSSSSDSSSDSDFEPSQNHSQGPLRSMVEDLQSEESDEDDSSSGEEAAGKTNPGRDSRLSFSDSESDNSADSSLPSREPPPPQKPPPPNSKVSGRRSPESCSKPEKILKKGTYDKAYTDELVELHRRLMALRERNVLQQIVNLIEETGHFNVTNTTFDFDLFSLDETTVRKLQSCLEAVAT
From the text: as §1, §2, §3, §4, §5, §6, §7

MV4-11 cells = assay: MV4-11 cellular proliferative assay, Assay Format B (CTG 2.0, 168 h); type: cell-based; details: Homo sapiens, Assay format B, 168 h, read-out: IC50 (MV4-11 cellular proliferative assay)
In short: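 Cells seeded at 600/well in IMDM + 10% FBS, incubated overnight, then exposed 168 h (7 days) at 37 °C to 10 concentrations, 3-fold dilutions from 1 uM or 100 nM top dose (0.3% DMSO final). Viability by CTG 2.0 luminescence as % of DMSO control; curves fitted by four-parameter logistic regression.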

MLLT1 [2] = molecular target: T2, MLLT1; assay: MLLT1 degradation assay in MV4-11 cells (JESS, 24 h); type: cell-based; set-up: endogenous in cells; host or cells: MV4-11 (ATCC CRL-9591); details: vs DMSO control
In short: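 MV4-11 cells treated at 1000, 100 and 10 nM (0.1% DMSO) for 24 h at 37° C; lysates (4 ug protein) run on JESS capillary immunoassay with MLLT1 and GAPDH antibodies. Peak areas give % degradation versus DMSO, binned A (≥75%) to D (<25%).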

Structure (SMILES): Cc1nn(C)c2cc(C(=O)Nc3cc4[nH]c(C5CCCN5C)cc4cn3)ccc12 (racemic) [Example 75, rac-1,3-dimethyl-N-(2-(1-methylpyrrolidin-2-yl)-1H-pyrrolo[3,2-c]pyridin-6-yl)-1H-indazole-6-carboxamide]
- IC50 (MLLT3): 100 to 1000 nM
- IC50 (MLLT1 [1]): ≤ 100 nM

Structure (SMILES): Cc1nn(C)c2cc(C(=O)Nc3cc4[nH]c([C@@H]5CCCN5C)cc4cn3)ccc12 (single isomer, unassigned) [Example 77]
- IC50 (MLLT3): 1000 to 10000 nM
- IC50 (MLLT1 [1]): 100 to 1000 nM

Structure (SMILES): CN1CCCC1c1cc2cnc(NC(=O)c3ccc4c(cnn4C)c3)cc2[nH]1 (single isomer, unassigned) [Example 78, 1-methyl-N-{2-[(rel-2S)-1-methylpyrrolidin-2-yl]-1H-pyrrolo[3,2-c]pyridin-6-yl}indazole-5-carboxamide]
- IC50 (MLLT3): 1000 to 10000 nM
- IC50 (MLLT1 [1]): 1000 to 10000 nM

Structure (SMILES): CN1CCCC1c1cc2cnc(NC(=O)c3ccc4c(cnn4C)c3)cc2[nH]1 (single isomer, unassigned) [Example 79, 1-methyl-N-{2-[(rel-2R)-1-methylpyrrolidin-2-yl]-1H-pyrrolo[3,2-c]pyridin-6-yl}indazole-5-carboxamide]
- IC50 (MLLT3): ≤ 100 nM
- IC50 (MLLT1 [1]): ≤ 100 nM

Structure (SMILES): CCN1CCCC1c1cc2cnc(NC(=O)c3ccc4c(C)nn(C)c4c3)cc2[nH]1 (single isomer, unassigned) [Example 84, N-{2-[(rel-2R)-1-ethylpyrrolidin-2-yl]-1H-pyrrolo[3,2-c]pyridin-6-yl}-1,3-dimethylindazole-6-carboxamide]
- IC50 (MLLT3): 100 to 1000 nM
- IC50 (MLLT1 [1]): 100 to 1000 nM

Structure (SMILES): CCN1CCCC1c1cc2cnc(NC(=O)c3ccc4c(C)nn(C)c4c3)cc2[nH]1 (single isomer, unassigned) [Example 85, N-{2-[(rel-2S)-1-ethylpyrrolidin-2-yl]-1H-pyrrolo[3,2-c]pyridin-6-yl}-1,3-dimethylindazole-6-carboxamide]
- IC50 (MLLT1 [1]): 1000 to 10000 nM

Structure (SMILES): Cc1nn(C2CCC(CCCC#Cc3cccc4c3CN(C3CCC(=O)NC3=O)C4=O)CC2)c2cc(C(=O)Nc3cc4[nH]c([C@H]5CCCN5C)cc4cn3)ccc12 (stereo partly drawn) [Example 74, 1-(4-(5-(2-(2,6-dioxopiperidin-3-yl)-1-oxoisoindolin-4-yl)pent-4-yn-1-yl)cyclohexyl)-3-methyl-N-(2-((R)-1-methylpyrrolidin-2-yl)-1H-pyrrolo[3,2-c]pyridin-6-yl)-1H-indazole-6-carboxamide]
- IC50 (MV4-11 cells): < 100 nM
- MLLT1% Degradation @ 0.01 μM (MLLT1 [2]): B (Category B: 50%≤B<75% degradation)
- MLLT1% Degradation @ 0.1 μM (MLLT1 [2]): B (Category B: 50%≤B<75% degradation)
- MLLT1% Degradation @ 1 μM (MLLT1 [2]): A (Category A: A≥75% degradation)

Structure (SMILES): Cc1nn(CC2CCN(c3ccc4c(c3)C(=O)N(C3CCC(=O)NC3=O)C4=O)CC2)c2cc(C(=O)Nc3cc4[nH]c([C@H]5CCCN5C)cc4cn3)ccc12 (stereo partly drawn) [Example 104, 1-((1-(2-(2,6-dioxopiperidin-3-yl)-1,3-dioxoisoindolin-5-yl)piperidin-4-yl)methyl)-3-methyl-N-(2-((R)-1-methylpyrrolidin-2-yl)-1H-pyrrolo[3,2-c]pyridin-6-yl)-1H-indazole-6-carboxamide]
- IC50 (MV4-11 cells): < 100 nM
- MLLT1% Degradation @ 0.01 μM (MLLT1 [2]): B (Category B: 50%≤B<75% degradation)
- MLLT1% Degradation @ 0.1 μM (MLLT1 [2]): A (Category A: A≥75% degradation)
- MLLT1% Degradation @ 1 μM (MLLT1 [2]): C (Category C: 25%≤C<50% degradation)

Structure (SMILES): Cc1nn(CCCCCC2CCN(c3cccc4c3CN(C3CCC(=O)NC3=O)C4=O)CC2)c2cc(C(=O)Nc3cc4[nH]c([C@H]5CCCN5C)cc4cn3)ccc12 (stereo partly drawn) [Example 105, 1-(5-(1-(2-(2,6-dioxopiperidin-3-yl)-1-oxoisoindolin-4-yl)piperidin-4-yl)pentyl)-3-methyl-N-(2-((R)-1-methylpyrrolidin-2-yl)-1H-pyrrolo[3,2-c]pyridin-6-yl)-1H-indazole-6-carboxamide]
- IC50 (MV4-11 cells): < 100 nM
- MLLT1% Degradation @ 0.01 μM (MLLT1 [2]): B (Category B: 50%≤B<75% degradation)
- MLLT1% Degradation @ 0.1 μM (MLLT1 [2]): A (Category A: A≥75% degradation)
- MLLT1% Degradation @ 1 μM (MLLT1 [2]): A (Category A: A≥75% degradation)

Structure (SMILES): Cc1nn(CC2CCN(c3cccc4c3CN(C3CCC(=O)NC3=O)C4=O)CC2)c2cc(C(=O)Nc3cc4[nH]c([C@H]5CCCN5C)cc4cn3)ccc12 (stereo partly drawn) [Example 106, 1-((1-(2-(2,6-dioxopiperidin-3-yl)-1-oxoisoindolin-4-yl)piperidin-4-yl)methyl)-3-methyl-N-(2-((R)-1-methylpyrrolidin-2-yl)-1H-pyrrolo[3,2-c]pyridin-6-yl)-1H-indazole-6-carboxamide]
- IC50 (MV4-11 cells): < 100 nM
- MLLT1% Degradation @ 0.01 μM (MLLT1 [2]): A (Category A: A≥75% degradation)
- MLLT1% Degradation @ 0.1 μM (MLLT1 [2]): A (Category A: A≥75% degradation)
- MLLT1% Degradation @ 1 μM (MLLT1 [2]): A (Category A: A≥75% degradation)

Structure (SMILES): Cc1nn(CCCCCC2CCN(c3ccc4c(c3)C(=O)N(C3CCC(=O)NC3=O)C4=O)CC2)c2cc(C(=O)Nc3cc4[nH]c([C@H]5CCCN5C)cc4cn3)ccc12 (stereo partly drawn) [Example 109, 1-(5-(1-(2-(2,6-dioxopiperidin-3-yl)-1,3-dioxoisoindolin-5-yl)piperidin-4-yl)pentyl)-3-methyl-N-(2-((R)-1-methylpyrrolidin-2-yl)-1H-pyrrolo[3,2-c]pyridin-6-yl)-1H-indazole-6-carboxamide]
- IC50 (MV4-11 cells): < 100 nM
- MLLT1% Degradation @ 0.01 μM (MLLT1 [2]): A (Category A: A≥75% degradation)
- MLLT1% Degradation @ 0.1 μM (MLLT1 [2]): A (Category A: A≥75% degradation)
- MLLT1% Degradation @ 1 μM (MLLT1 [2]): A (Category A: A≥75% degradation)
